Assay results published in ChEMBL document CHEMBL5727776, “Heteroaromatic carboxamide derivatives as plasma kallikrein inhibitors” (2020).

Molecular target: Plasma kallikrein (Homo sapiens, UniProt P03952)
Assay: Measurements were performed in a kinetic interval every 2nd minute for 16 min using a Spectramax M5 (Molecular Devices) with the following settings of the wavelength excitation of 350 nm and wavelength emission of 450 nm.

Plasma kallikrein, sequence (P03952 20-390 limits assumed): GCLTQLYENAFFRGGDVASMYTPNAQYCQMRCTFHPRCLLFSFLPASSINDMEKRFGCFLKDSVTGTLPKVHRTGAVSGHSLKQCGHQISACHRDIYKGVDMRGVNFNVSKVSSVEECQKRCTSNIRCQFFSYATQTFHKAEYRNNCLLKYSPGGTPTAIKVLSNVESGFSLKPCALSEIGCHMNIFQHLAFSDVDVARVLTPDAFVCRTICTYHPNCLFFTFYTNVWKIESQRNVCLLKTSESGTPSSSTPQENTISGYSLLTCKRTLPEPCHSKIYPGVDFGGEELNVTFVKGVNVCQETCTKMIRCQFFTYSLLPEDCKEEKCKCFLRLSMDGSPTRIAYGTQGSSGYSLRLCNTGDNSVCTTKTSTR
Plasma kallikrein, sequence (P03952 391-638 limits assumed): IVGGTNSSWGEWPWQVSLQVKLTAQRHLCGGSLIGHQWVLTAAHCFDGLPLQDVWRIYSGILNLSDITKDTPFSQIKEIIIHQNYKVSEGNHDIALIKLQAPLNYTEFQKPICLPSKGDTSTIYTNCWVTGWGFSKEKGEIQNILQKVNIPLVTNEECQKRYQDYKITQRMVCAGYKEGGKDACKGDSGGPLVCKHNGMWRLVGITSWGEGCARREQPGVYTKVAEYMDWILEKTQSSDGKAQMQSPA

| Ki [nM] | SMILES |
| --- | --- |
| 0.1 | Cc1nc(N2CC3C(C2)C3(F)F)ccc1Cn1cc(C(=O)N[C@@H]2CCc3c(C)n[nH]c32)c(C)n1 (some centres not stated) |
| 0.4 | Cc1nc(N2CC3(CC3)C2)ccc1Cn1cc(C(=O)N[C@@H]2CCc3c(C)n[nH]c32)cn1 |
